pIC50: −log10 of the molar value.
Assays:
[1] = target: T1, human TRPV1 (Homo sapiens (Human), UniProt Q8NER1); assay: Acid Activation Assay (pH 5.0, intracellular Ca2+, FLIPR); type: cell-based; details: percentage of the maximal pH 5.0-induced response remaining; recombinant HEK293 hTRPV1 cells; maximum concentration tested 37.5 μM
How it was run: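 HEK293 cells stably expressing recombinant hTRPV1, loaded with Calcium-4 dye 90-120 min at 25° C. Compounds added over a 12-point half-log range (top 37.5 μM), then pH 5.0 DPBS/MES challenge after 3 min; FLIPR peak fluorescence over baseline given as % of maximal pH 5.0 response.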

[2] = target: T1, human TRPV1; assay: Capsaicin Activation Assay (intracellular Ca2+, FLIPR); type: cell-based; details: recombinant HEK293 cells expressing hTRPV1, 50 nM capsaicin
How it was run: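 Stably transfected HEK293 cells expressing human TRPV1 cDNA, plated the day before in poly-D-lysine plates. Compounds serially diluted from 10 mM DMSO stocks; intracellular Ca2+ fluorescence read on FLIPR at 1 to 5 second intervals.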

T1 sequence (Q8NER1 whole entry): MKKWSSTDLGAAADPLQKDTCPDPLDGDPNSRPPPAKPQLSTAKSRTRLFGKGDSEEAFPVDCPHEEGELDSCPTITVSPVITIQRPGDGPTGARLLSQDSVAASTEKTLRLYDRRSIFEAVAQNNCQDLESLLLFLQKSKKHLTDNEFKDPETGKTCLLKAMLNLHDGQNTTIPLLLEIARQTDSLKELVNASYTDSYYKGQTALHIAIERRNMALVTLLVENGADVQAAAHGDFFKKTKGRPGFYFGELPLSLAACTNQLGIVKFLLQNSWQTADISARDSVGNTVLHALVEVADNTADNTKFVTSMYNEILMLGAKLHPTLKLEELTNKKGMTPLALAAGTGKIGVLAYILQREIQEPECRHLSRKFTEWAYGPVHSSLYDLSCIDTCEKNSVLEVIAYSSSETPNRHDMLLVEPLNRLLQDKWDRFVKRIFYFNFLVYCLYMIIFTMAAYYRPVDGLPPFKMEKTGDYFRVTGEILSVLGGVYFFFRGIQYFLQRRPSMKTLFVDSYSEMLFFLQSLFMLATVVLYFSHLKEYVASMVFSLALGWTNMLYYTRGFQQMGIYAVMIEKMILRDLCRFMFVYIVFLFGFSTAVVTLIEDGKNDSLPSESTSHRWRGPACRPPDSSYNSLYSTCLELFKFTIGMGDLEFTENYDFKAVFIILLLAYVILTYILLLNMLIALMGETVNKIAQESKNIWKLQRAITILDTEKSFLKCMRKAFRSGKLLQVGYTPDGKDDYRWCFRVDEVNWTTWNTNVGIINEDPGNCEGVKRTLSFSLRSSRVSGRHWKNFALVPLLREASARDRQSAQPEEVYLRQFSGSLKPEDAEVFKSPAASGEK

Row | Structure (SMILES) | human TRPV1 H^+ (max % remain) [1] [%] | pIC50 [2]
1 | CN1Cc2ccc(NC(=O)N[C@H]3CC4(CCC4)Oc4ccc(F)cc43)cc2NC1=O [Example 203, 1-[(4S)-6-fluoro-3,4-dihydrospiro[chromene-2,1′-cyclobutan]-4-yl]-3-(3-methyl-2-oxo-1,2,3,4-tetrahydroquinazolin-7-yl)urea] | 64 | 4.55
2 | CN1C(=O)NCc2c(NC(=O)N[C@@H]3CC4(CCCC4)Oc4ccccc43)cccc21 [Example 15, 1-[(4R)-3,4-dihydrospiro[chromene-2,1′-cyclopentan]-4-yl]-3-(1-methyl-2-oxo-1,2,3,4-tetrahydroquinazolin-5-yl)urea] | 40 | 7.68
3 | CCC1(CC)C[C@@H](NC(=O)Nc2ccc3c(c2)NC(=O)N(CCO)C3)c2ccccc2O1 [Example 45, 1-[(4R)-2,2-diethyl-3,4-dihydro-2H-chromen-4-yl]-3-[3-(2-hydroxyethyl)-2-oxo-1,2,3,4-tetrahydroquinazolin-7-yl]urea] | 4 | 7.37
4 | O=C(Nc1ccc2c(c1)NC(=O)N(CCO)C2)N[C@@H]1CCc2cc(F)ccc21 [Example 55, 1-[(1R)-5-fluoro-2,3-dihydro-1H-inden-1-yl]-3-[3-(2-hydroxyethyl)-2-oxo-1,2,3,4-tetrahydroquinazolin-7-yl]urea] | 36 | 5.14
5 | CN1C(=O)NCc2c(NC(=O)N[C@@H]3CC(CF)(CF)Oc4ccccc43)cccc21 [Example 9, 1-[(4R)-2,2-bis(fluoromethyl)-3,4-dihydro-2H-chromen-4-yl]-3-(1-methyl-2-oxo-1,2,3,4-tetrahydroquinazolin-5-yl)urea] | 30 | 6.52
6 | CN1C(=O)CCc2ccc(NC(=O)N[C@@H]3CCc4cc(Cl)ccc43)cc21 [Example 283, 1-[(1R)-5-chloro-2,3-dihydro-1H-inden-1-yl]-3-(1-methyl-2-oxo-1,2,3,4-tetrahydroquinolin-7-yl)urea] | 84 | 5.32
7 | CCCC1(CCC)C[C@@H](NC(=O)Nc2cccc3c2CNC(=O)N3C)c2cc(F)ccc2O1 [Example 151, 1-[(4R)-6-fluoro-2,2-dipropyl-3,4-dihydro-2H-chromen-4-yl]-3-(1-methyl-2-oxo-1,2,3,4-tetrahydroquinazolin-5-yl)urea] | 53 | 6.77
8 | C[C@@]1(CF)C[C@@H](NC(=O)Nc2ccc3c(c2)NC(=O)CO3)c2ccc(C(F)(F)F)cc2O1 [Example 127, 1-[(2S,4R)-2-(fluoromethyl)-2-methyl-7-(trifluoromethyl)-3,4-dihydro-2H-chromen-4-yl]-3-(3-oxo-3,4-dihydro-2H-1,4-benzoxazin-6-yl)urea] | 100 | 7.17
9 | Cn1c(=O)ccc2c(NC(=O)N[C@@H]3CCc4cc(Cl)ccc43)cccc21 [Example 96, 1-[(1R)-5-chloro-2,3-dihydro-1H-inden-1-yl]-3-(1-methyl-2-oxo-1,2-dihydroquinolin-5-yl)urea] | 37 | 8.10
10 | O=C1CCc2ccc(NC(=O)N[C@@H]3CCOc4cc(OC(F)(F)F)ccc43)cc2N1 [Example 236, 1-(2-oxo-1,2,3,4-tetrahydroquinolin-7-yl)-3-[(4R)-7-(trifluoromethoxy)-3,4-dihydro-2H-chromen-4-yl]urea] | 27 | 7.49
11 | CN1C(=O)NCc2c(NC(=O)N[C@H]3CCOc4cc(OC(F)(F)F)ccc43)cccc21 [Example 169, 1-(1-methyl-2-oxo-1,2,3,4-tetrahydroquinazolin-5-yl)-3-[(4S)-7-(trifluoromethoxy)-3,4-dihydro-2H-chromen-4-yl]urea] | 96 | < 4.42
12 | CN1C(=O)CCc2ccc(NC(=O)N[C@@H]3CCOc4cc(OC(F)(F)F)ccc43)cc21 [Example 278, 1-(1-methyl-2-oxo-1,2,3,4-tetrahydroquinolin-7-yl)-3-[(4R)-7-(trifluoromethoxy)-3,4-dihydro-2H-chromen-4-yl]urea] | 68 | 7.11
13 | Cn1c(=O)ccc2c(NC(=O)N[C@@H]3CCOc4ccc(F)cc43)cccc21 [Example 82, 1-[(4R)-6-fluoro-3,4-dihydro-2H-chromen-4-yl]-3-(1-methyl-2-oxo-1,2-dihydroquinolin-5-yl)urea] | 56 | 6.60
14 | CC1(C)C[C@@H](NC(=O)Nc2ccc3c(c2)NC(=O)CO3)c2ccccc2O1 [Example 112, 1-[(4R)-2,2-dimethyl-3,4-dihydro-2H-chromen-4-yl]-3-(3-oxo-3,4-dihydro-2H-1,4-benzoxazin-6-yl)urea] | 101 | 6.36
15 | CN1C(=O)CCc2ccc(NC(=O)N[C@@H]3C[C@@](C)(C(F)F)Oc4ccccc43)cc21 [Example 292, 1-[(2S,4R)-2-(difluoromethyl)-2-methyl-3,4-dihydro-2H-chromen-4-yl]-3-(1-methyl-2-oxo-1,2,3,4-tetrahydroquinolin-7-yl)urea] | 68 | 7.59
16 | CN1C(=O)NCc2c(NC(=O)N[C@@H]3C[C@@](C)(CF)Oc4cc(Cl)ccc43)cccc21 [Example 14, 1-[(2S,4R)-7-chloro-2-(fluoromethyl)-2-methyl-3,4-dihydro-2H-chromen-4-yl]-3-(1-methyl-2-oxo-1,2,3,4-tetrahydroquinazolin-5-yl)urea] | 23 | 7.20
17 | CC1(C)C[C@@H](NC(=O)Nc2ccc3c(c2)NC(=O)N(CCO)C3)c2cc(F)ccc2O1 [Example 51, 1-[(4R)-6-fluoro-2,2-dimethyl-3,4-dihydro-2H-chromen-4-yl]-3-[3-(2-hydroxyethyl)-2-oxo-1,2,3,4-tetrahydroquinazolin-7-yl]urea] | 10 | 6.48
18 | CN1C(=O)CCc2ccc(NC(=O)N[C@H]3CC(C)(C)Oc4ccc(F)cc43)cc21 [Example 287, 1-[(4S)-6-fluoro-2,2-dimethyl-3,4-dihydro-2H-chromen-4-yl]-3-(1-methyl-2-oxo-1,2,3,4-tetrahydroquinolin-7-yl)urea] | 92 | 4.89
19 | Cn1c(=O)ccc2c(NC(=O)N[C@@H]3CC(C)(C)Oc4c3ccc(F)c4F)cccc21 [Example 81, 1-[(4R)-7,8-difluoro-2,2-dimethyl-3,4-dihydro-2H-chromen-4-yl]-3-(1-methyl-2-oxo-1,2-dihydroquinolin-5-yl)urea] | 39 | 7.28
20 | CCCC1(CCC)C[C@@H](NC(=O)Nc2ccc3c(c2)NC(=O)CO3)c2cccc(F)c2O1 [Example 110, 1-[(4R)-8-fluoro-2,2-dipropyl-3,4-dihydro-2H-chromen-4-yl]-3-(3-oxo-3,4-dihydro-2H-1,4-benzoxazin-6-yl)urea] | 111 | 6.82
21 | CC1(C)C[C@@H](NC(=O)Nc2ccc3c(c2)NC(=O)N(CCO)C3)c2ccc(F)c(Cl)c2O1 [Example 312, 1-[(4R)-8-chloro-7-fluoro-2,2-dimethyl-3,4-dihydro-2H-chromen-4-yl]-3-[3-(2-hydroxyethyl)-2-oxo-1,2,3,4-tetrahydroquinazolin-7-yl]urea] | 36 | 6.70
22 | CN1C(=O)CCc2ccc(NC(=O)N[C@@H]3CCc4cc(F)ccc43)cc21 [Example 285, 1-[(1R)-5-fluoro-2,3-dihydro-1H-inden-1-yl]-3-(1-methyl-2-oxo-1,2,3,4-tetrahydroquinolin-7-yl)urea] | 27 | 7.26
23 | CC1(C)C[C@@H](NC(=O)Nc2ccc3c(c2)NC(=O)N(CCO)C3)c2ccc(C(F)(F)F)nc2O1 [Example 62, 1-[(4R)-2,2-dimethyl-7-(trifluoromethyl)-3,4-dihydro-2H-pyrano[2,3-b]pyridin-4-yl]-3-[3-(2-hydroxyethyl)-2-oxo-1,2,3,4-tetrahydroquinazolin-7-yl]urea] | 9 | 5.82
24 | CN1C(=O)CCc2ccc(NC(=O)N[C@@H]3CC(C)(C)Oc4c3cccc4C(F)(F)F)cc21 [Example 256, 1-[(4R)-2,2-dimethyl-8-(trifluoromethyl)-3,4-dihydro-2H-chromen-4-yl]-3-(1-methyl-2-oxo-1,2,3,4-tetrahydroquinolin-7-yl)urea] | 89 | 6.41
25 | CN1Cc2ccc(NC(=O)N[C@@H]3CCOc4cc(C(F)(F)F)ccc43)cc2NC1=O [Example 201, 1-(3-methyl-2-oxo-1,2,3,4-tetrahydroquinazolin-7-yl)-3-[(4R)-7-(trifluoromethyl)-3,4-dihydro-2H-chromen-4-yl]urea] | 45 | 6.89
26 | CCN1C(=O)NCc2c(NC(=O)N[C@@H]3CC(CF)(CF)Oc4cc(Cl)ccc43)cccc21 [Example 162, 1-[(4R)-7-chloro-2,2-bis(fluoromethyl)-3,4-dihydro-2H-chromen-4-yl]-3-(1-ethyl-2-oxo-1,2,3,4-tetrahydroquinazolin-5-yl)urea] | 0 | 6.89
27 | CCC1(CC)C[C@@H](NC(=O)Nc2ccc3c(c2)NC(=O)CO3)c2ccc(Cl)c(Cl)c2O1 [Example 105, 1-[(4R)-7,8-dichloro-2,2-diethyl-3,4-dihydro-2H-chromen-4-yl]-3-(3-oxo-3,4-dihydro-2H-1,4-benzoxazin-6-yl)urea] | 79 | 6.34
28 | CN1Cc2ccc(NC(=O)N[C@@H]3C[C@@](C)(C(F)F)Oc4ccccc43)cc2NC1=O [Example 171, 1-[(2S,4R)-2-(difluoromethyl)-2-methyl-3,4-dihydro-2H-chromen-4-yl]-3-(3-methyl-2-oxo-1,2,3,4-tetrahydroquinazolin-7-yl)urea] | 63 | 5.89

Reference: patent US8969325B2, “TRPV1 antagonists” (AbbVie Inc., priority 2011, dated 2015)
